Assay results taken from PubChem BioAssay (NCI).
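Exposure lasted 48 hours, with cells grown in 96-well plates and compounds tested at five concentrations. Here, GI50 denotes the concentration required for 50% inhibition of growth. At the TGI there is no net growth.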

Legend:
Assay in all cases: inhibition of tumour cell growth, NCI panel, 48 h
[1] = tested on: A498 renal
[2] = tested on: MALME-3M melanoma
[3] = tested on: NCI-H460 lung
[4] = tested on: EKVX NSCLC
[5] = tested on: UACC-257 melanoma
[6] = tested on: 786-0 renal
[7] = tested on: UO-31 renal
[8] = tested on: A549 NSCLC
[9] = tested on: U251 CNS
[10] = tested on: KM12 colon
[11] = tested on: MDA-MB-231 breast
[12] = tested on: T-47D breast
[13] = tested on: OVCAR-4 ovarian
[14] = tested on: COLO 205 colon
[15] = tested on: UACC-62 melanoma
[16] = tested on: K-562 leukemia
[17] = tested on: ACHN renal
[18] = tested on: OVCAR-3 ovarian
[19] = tested on: SR leukemia
[20] = tested on: NCI-H226 lung
[21] = tested on: RXF 393 renal
[22] = tested on: HOP-92 NSCLC
[23] = tested on: RPMI-8226 leukemia
[24] = tested on: PC-3 prostate
[25] = tested on: SF-268 CNS
[26] = tested on: CAKI-1 renal
[27] = tested on: SW-620 colon
[28] = tested on: NCI-H23 lung
[29] = tested on: HCT-15 colon
[30] = tested on: DU-145 prostate
[31] = tested on: SF-295 CNS
[32] = tested on: SNB-19 CNS
[33] = tested on: SN12C renal
[34] = tested on: IGROV1 ovarian
[35] = tested on: SK-MEL-2 melanoma
[36] = tested on: HT29 colon
[37] = tested on: MCF7 breast
[38] = tested on: MDA-MB-435
[39] = tested on: SF-539 CNS
[40] = tested on: SK-MEL-28 melanoma
[41] = tested on: HCC-2998 colon
[42] = tested on: NCI-H522 lung
[43] = tested on: LOX IMVI melanoma
[44] = tested on: OVCAR-8 ovarian
[45] = tested on: CCRF-CEM leukemia
[46] = tested on: HL-60(TB) leukemia
[47] = tested on: HS 578T breast
[48] = tested on: HCT-116 colon
[49] = tested on: SK-OV-3 ovarian
[50] = tested on: SK-MEL-5 melanoma
[51] = tested on: OVCAR-5 ovarian
[52] = tested on: TK-10 renal
[53] = tested on: MDA-MB-468 breast
[54] = tested on: MOLT-4 leukemia
[55] = tested on: NCI/ADR-RES ovarian
[56] = tested on: M14 melanoma
[57] = tested on: BT-549 breast
[58] = tested on: HOP-62 NSCLC
[59] = tested on: SNB-75 CNS

Question: What does the source list for `C=CC(=O)Nc1ccc(C(=O)/C=C/c2ccc(N(C)CCF)cc2)c(O)c1`?
Answer: GI50 [1]: 3.52 µM; TGI [1]: 17.7 µM; GI50 [2]: 1.43 µM; TGI [2]: 3.46 µM; GI50 [3]: 1.87 µM; TGI [3]: 5.46 µM; GI50 [4]: 3.37 µM; TGI [4]: 13.8 µM; GI50 [5]: 2.53 µM; TGI [5]: 10.9 µM; GI50 [6]: 1.65 µM; TGI [6]: 3.57 µM; GI50 [7]: 1.28 µM; TGI [7]: 3.74 µM; GI50 [8]: 2.62 µM; TGI [8]: 12.7 µM; GI50 [9]: 1.88 µM; TGI [9]: 5.17 µM; GI50 [10]: 2.1 µM; TGI [10]: 5.25 µM; GI50 [11]: 2.19 µM; TGI [11]: 5.58 µM; GI50 [12]: 2.47 µM; TGI [12]: 10 µM; GI50 [13]: 2.95 µM; TGI [13]: 14 µM; GI50 [14]: 1.98 µM; TGI [14]: 4.86 µM; GI50 [15]: 1.3 µM; TGI [15]: 2.77 µM; GI50 [16]: 2.27 µM; TGI [16]: 24 µM; GI50 [17]: 1.66 µM; TGI [17]: 3.45 µM; GI50 [18]: 1.62 µM; TGI [18]: 4.53 µM; GI50 [19]: 0.586 µM; TGI [19]: 6.2 µM; GI50 [20]: 1.92 µM; TGI [20]: 5.32 µM; GI50 [21]: 1.52 µM; TGI [21]: 3.09 µM; GI50 [22]: 0.527 µM; TGI [22]: 4 µM; GI50 [23]: 1.6 µM; TGI [23]: 5.92 µM; GI50 [24]: 2.22 µM; TGI [24]: 13.6 µM; GI50 [25]: 2.47 µM; TGI [25]: 8.58 µM; GI50 [26]: 1.87 µM; TGI [26]: 4.14 µM; GI50 [27]: 1.52 µM; TGI [27]: 3.36 µM; GI50 [28]: 1.68 µM; TGI [28]: 3.99 µM; GI50 [29]: 1.41 µM; TGI [29]: 3.01 µM; GI50 [30]: 2.52 µM; TGI [30]: 10.3 µM; GI50 [31]: 4.49 µM; TGI [31]: 18.9 µM; GI50 [32]: 3.67 µM; TGI [32]: 15 µM; GI50 [33]: 1.86 µM; TGI [33]: 5.2 µM; GI50 [34]: 2 µM; TGI [34]: 6 µM; GI50 [35]: 2.53 µM; TGI [35]: 7.88 µM; GI50 [36]: 1.57 µM; TGI [36]: 3.31 µM; GI50 [37]: 1.89 µM; TGI [37]: 10.7 µM; GI50 [38]: 1.72 µM; TGI [38]: 4.6 µM; GI50 [39]: 1.67 µM; TGI [39]: 3.5 µM; GI50 [40]: 1.58 µM; TGI [40]: 3.14 µM; GI50 [41]: 1.78 µM; TGI [41]: 3.64 µM; GI50 [42]: 1.42 µM; TGI [42]: 2.95 µM; GI50 [43]: 1.33 µM; TGI [43]: 2.69 µM; GI50 [44]: 1.51 µM; TGI [44]: 3.86 µM; GI50 [45]: 2.15 µM; TGI [45]: 10.5 µM; GI50 [46]: 1.77 µM; TGI [46]: 5.3 µM; GI50 [47]: 2.97 µM; TGI [47]: 17.3 µM; GI50 [48]: 1.5 µM; TGI [48]: 3 µM; GI50 [49]: 6.47 µM; TGI [49]: 21.4 µM; GI50 [50]: 2.14 µM; TGI [50]: 6.49 µM; GI50 [51]: 1.98 µM; TGI [51]: 4.3 µM; GI50 [52]: 3.12 µM; TGI [52]: 8.4 µM; GI50 [53]: 1.63 µM; TGI [53]: 4.28 µM; GI50 [54]: 1.99 µM; TGI [54]: 6.85 µM; GI50 [55]: 1.55 µM; TGI [55]: 4.4 µM; GI50 [56]: 1.7 µM; TGI [56]: 4.19 µM; GI50 [57]: 1.55 µM; TGI [57]: 3.78 µM; GI50 [58]: 3.26 µM; TGI [58]: 13 µM; GI50 [59]: 2.1 µM; TGI [59]: 9.84 µM
